# Data taken from US8604059B2, “Thioxanthene derivatives for the treatment of infectious diseases” (BKG Pharma APS, priority 2009, dated 2013).
# “And” between values parts separate entries of the source, which are not always exact repeats. Identical values can stand only once.
# Columns and labels:
# [1] = test system: E. faecalis MDR/VRE clinical isolates; test: FIC index, synergy with antibiotics (Table 4a); format: cell-based, Enterococcus faecalis; details: 8 MDR/VRE E. faecalis, mean, compound at ¼ of MIC
# Procedure: The effect of the compounds was tested according to the methods described in WO2005/105145. In brief, cell growth was tested using the MIC susceptibility tests by use of the microdilution broth method in accordance to the NCCLS Guidelines (NCCLS Guidelines, Methods for Dilution Antimicrobial Susceptibility Tests for Bacteria That Grow Aerobically; Approved Standard, Sixth Edition, Volume 23; Number 2).
# The Fractional Inhibitory Concentration (FIC) index were calculated for each compound as described in WO2005/105145. Synergy was defined for Fractional Inhibitory Concentration (FIC) indices less than 0.5
# Enterococcus faecalis: 8 multidrug resistant in vivo-selected clinical isolates. […] Expressing change in the cell wall precursor target as a major resistance mechanism (VanA gene expression).
# Candida albicans = test: Synergy with fluconazole, broth microdilution NCCLS M27-A (Table 10); format: cell-based
# Procedure: The isolates were subcultured for 24 h on Sabouraud glucose agar before susceptibility testing. Broth microdilution tests were performed according to NCCLS document M27-A (Ref: National Commitee for Clinical Laboratory Standards. (1997). Reference Method for Broth Dilution Antifungal Susceptibility Testing of Yeasts: Approved Standard M27-A. NCCLS, Wayne, Pa.) Microtitre plates were read spectrophotometrically at 530 nm, after mixing the wells by pipetting to resuspend yeast sediments. […] The Fractional Inhibitory Concentration (FIC) was calculated for the anti-infective agent alone and in combination with compound 3 and 4 (see table 4) as described above. Synergy was defined as a FIC index of <0.5.
# S. aureus O11 = test: Emergence of in vitro-selected single-step ciprofloxacin resistance; format: cell-based; details: ciprofloxacin 1 μg per ml (two times the MIC); inhibitor 1 μg/ml; 24 h
# Procedure: The frequency of mutant selection was determined to be 3×10−8 by comparing the number of colonies that grew on plates containing the anti-infective agent with the number of colonies obtained upon plating appropriate dilutions in the absence of anti-infective agents.
# [2] = test system: Multiresistant clinical isolates E. coli; test: Maximal reversal of resistance and synergistic effect (Table 4c); format: cell-based; details: E. coli multiresistant isolates
# Procedure: The maximal obtained reversal of resistance and synergistic effect was tested as previously described.
# Strains: Multiresistant clinical isolates E. coli, Ten strains in each group.
# [3] = Cytotoxic effect in uninfected MT4 cultures; format: cell-based; details: human, uninfected MT4 cells; single agent; uninfected MT4
# Procedure: (§1) Compounds were examined for possible antiviral activity against strain IIIB of HIV-1 using MT4 cells as target cells. MT4 cells were incubated with virus (0.005 MOI) and growth medium containing the test dilutions of compound(s) for six days in parallel with virus-infected and uninfected control cultures without compound added. Expression of HIV in the cultures was indirectly quantified using the MTT assay as previously described. Compounds mediating less than 30% reduction of HIV expression were considered without biological activity. Compounds were tested in parallel for cytotoxic effect in uninfected MT4 cultures containing the test dilutions of compound as described above. Cultures for test of both antiviral activity and cytotoxic effect were set up in tripleduplicates, […] per culture in micro titre plates. A 30% inhibition of cell growth relative to control cultures was considered significant. The 50% inhibitory concentration was determined by interpolation from the plots of percent inhibition versus concentration of compound.
# (§2) CC50 is defined as the inhibitory concentration that reduces cellular growth or viability of uninfected cells by 50%.
# MT4 cells = test: Cytotoxic effect in uninfected MT4 cultures; format: cell-based; details: at the concentrations used
# Procedure: as §1, §2
# [4] = test system: Enterococcus faecalis ENT 28 (VRE); test: Mouse peritonitis model, neutropenic NMRI mice, enhancing effect with linezolid; format: in vivo
# Procedure: A multiresistant clinical isolate of Enterococcus faecalis ENT 28 (VRE) from human urine was used.
# Female NMRI mice (age, approximately 6 to 8 weeks; weight, 30±2 g) were used for the mouse […] peritonitis model (as described below).
# In order to detect any synergistic effect, infected mice were treated with sub-therapeutic doses of each test compound alone or a mixture of the two compounds.
# Bacterial suspensions were prepared from fresh overnight cultures (made from frozen stock cultures) on 5% blood agar plates as described above. The inoculum for the mouse peritonitis model was prepared immediately before use and was adjusted at 540 nm of giving a density of approximately 10^7 CFU/ml. The size of the inoculum was determined by viability counting on 5% blood agar.
# Neutropenia was introduced by pretreating the mice with cyclophosphamide (6 mg daily for three days). […] Antibiotic therapy was initiated just after inoculation. Linezolid and compound 3 was administered subcutaneously in the neck region in a volume of 0.5 ml per dose. 3 mice were in each treatment group. Inoculated untreated control mice were included in all trials. (Method reference: Erlandsdottir et al; Antimicrob Agents Chemother. 2001 April; 45(4):1078-85)
# The effects of the various treatment regimens were determined during 5 h of treatment by evaluation of bacterial counts in the peritoneal fluid. After the mice were killed, peritoneal washes were performed by injecting 2 ml of sterile saline intraperitoneally, followed by massage of the abdomen and then opening of the peritoneum to collect the fluid. Peritoneal fluids were immediately diluted 10-fold in saline, from which 20 μl was plated onto 5% blood agar plates in spots, with subsequent counting of colonies after incubation overnight at 35° C. The lowest detection levels for bacterial counts in blood and peritoneal fluid were 50 and 250 CFU/ml, respectively.
# Candida species = test: MIC on clinical isolates of Candida species, broth microdilution NCCLS M27-A (Table 3); format: cell-based; details: Candida species incl. fluconazole resistant; MIC = 90% growth inhibition
# Procedure: The antibacterial effect of demethylated/dealkylated phenothiazine or thioxanthene compounds were studied by growth inhibition studies exposing cells to 0-32 μg/ml of drug. Each experiment was repeated in triplicate. MIC values represent the mean values of two separate triplicate experiments.
# 4 clinical isolates of Candida species (including 3 fluconazole resistant isolates) were subcultured for 24 h on Sabouraud glucose agar before susceptibility testing. Broth microdilution tests were performed according to NCCLS document M27-A (Ref: National Commitee for Clinical Laboratory Standards. (1997). Reference Method for Broth Dilution Antifungal Susceptibility Testing of Yeasts: Approved Standard M27-A. NCCLS, Wayne, Pa.). Microtitre plates were read spectrophotometrically at 530 nm, after mixing the wells by pipetting to resuspend yeast sediments. In this experiment, the MIC was defined as the lowest drug dilution resulting in 90% growth inhibition.
# [5] = treatment 0 and 2 hours, sampling 5 hours, sub-therapeutic doses as in Table 9, individual mice
compound,measurement,setting,value
Clc1ccc2c(c1)/C(=C/CCC1CCNCC1)c1ccccc1S2 [Compound 3],FIC index,[1]; with Ciprofloxacin,0.25
same,FIC index,[1]; with Dicloxacillin,0.25
same,MIC,"Candida albicans; Candida albicans, compound alone, read-out: MIC Compound",1 µg/mL
same,FIC index,Candida albicans; in combination with fluconazole,0.28
same,Frequency of emergence of resistance,S. aureus O11,<1 × 10^−10
same,Maximal reversal of resistance: concentration of compound,[2],0.6 µg/mL
same,CC50 at 6 days,[3],> 4 µM
same,Cytotoxic effect alone,MT4 cells,no antiviral or cytotoxic effect
same,Effect on the infection / bacteria in mouse peritoneum,[4]; sub-therapeutic dose alone,did not affect the bacteria
same,score at sampling,"[4]; treatment 0 and 2 hours, sampling 5 hours, Linezolid 1 mg/ml 0.5 ml, Compound 3 0.1 mg/ml 0.5, combination Linezolid 2 mg/ml (0.25 ml) and compound 3 0.2 mg/ml (0.25 ml), individual mice",1 and 2 (2×)
same,Cfu/ml peritoneum,[4]; [5],2.35E+09 Cfu/ml and 2.63E+09 Cfu/ml and 3.15E+09 Cfu/ml
same,log (cfu/ml) peritoneum,[4]; [5],9.37 log (cfu/ml) and 9.42 log (cfu/ml) and 9.50 log (cfu/ml)
same,MIC Mean (range),Candida species,1.0 (0.25-2.0) μ/ml
